Activity calls are given as the source filed them. The rule behind the calls is not given here.
B1: Prostaglandin G/H synthase 2 (Homo sapiens), P35354 (protein)
chain: MLARALLLCAVLALSHTANPCCSHPCQNRGVCMSVGFDQYKCDCTRTGFYGENCSTPEFLTRIKLFLKPTPNTVHYILTHFKGFWNVVNNIPFLRNAIMSYVLTSRSHLIDSPPTYNADYGYKSWEAFSNLSYYTRALPPVPDDCPTPLGVKGKKQLPDSNEIVEKLLLRRKFIPDPQGSNMMFAFFAQHFTHQFFKTDHKRGPAFTNGLGHGVDLNHIYGETLARQRKLRLFKDGKMKYQIIDGEMYPPTVKDTQAEMIYPPQVPEHLRFAVGQEVFGLVPGLMMYATIWLREHNRVCDVLKQEHPEWGDEQLFQTSRLILIGETIKIVIEDYVQHLSGYHFKLKFDPELLFNKQFQYQNRIAAEFNTLYHWHPLLPDTFQIHDQKYNYQQFIYNNSILLEHGITQFVESFTRQIAGRVAGGRNVPPAVQKVSQASIDQSRQMKYQSFNEYRKRFMLKPYESFEELTGEKEMSAELEALYGDIDAVELYPALLVEKPRPDAIFGETMVEVGAPFSLKGLMGNVICSPAYWKPSTFGGEVGFQIINTASIQSLICNNVKGCPFTSFSVPDPELIKTVTINASSSRSGLDDINPTVLLKERSTEL

molecular target: T1, Prostaglandin G/H synthase 2 (Homo sapiens) (UniProt P35354); assay: Inhibition of COX2 at 10 uM by scintillation proximity assay; conditions: not given
T1 sequence (whole entry): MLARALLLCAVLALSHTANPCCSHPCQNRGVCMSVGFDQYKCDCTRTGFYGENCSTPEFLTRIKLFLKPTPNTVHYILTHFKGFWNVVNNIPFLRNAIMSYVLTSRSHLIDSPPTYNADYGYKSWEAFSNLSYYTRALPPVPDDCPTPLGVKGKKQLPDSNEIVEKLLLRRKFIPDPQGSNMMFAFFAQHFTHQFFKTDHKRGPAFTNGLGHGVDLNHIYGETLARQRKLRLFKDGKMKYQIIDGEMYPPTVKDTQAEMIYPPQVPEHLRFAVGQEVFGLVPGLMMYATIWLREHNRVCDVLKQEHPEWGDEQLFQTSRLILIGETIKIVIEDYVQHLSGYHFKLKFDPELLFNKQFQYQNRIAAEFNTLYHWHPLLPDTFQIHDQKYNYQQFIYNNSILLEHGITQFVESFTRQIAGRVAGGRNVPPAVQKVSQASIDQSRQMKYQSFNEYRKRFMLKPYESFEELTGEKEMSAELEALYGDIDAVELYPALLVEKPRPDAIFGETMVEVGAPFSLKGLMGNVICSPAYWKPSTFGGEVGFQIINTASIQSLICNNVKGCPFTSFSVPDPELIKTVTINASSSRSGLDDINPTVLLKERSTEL

Q: With `C=CCc1ccc(O)c(OC)c1` as the molecule, how does the Activity read?
A: inactive

Q: `O=c1c(O)c(-c2cc(O)c(O)c(O)c2)oc2cc(O)cc(O)c12` was tested. Which Activity did it give?
A: inactive

Q: For `Oc1cccc(O)c1O`, which Activity is on record?
A: inactive

Q: Which Activity does the source give for `O=C(O)/C=C/c1ccc(O)c(O)c1` here?
A: inactive

Q: How did the Activity turn out when `O=C/C=C/c1ccccc1` was run?
A: inactive

molecular target: T2, Prostaglandin G/H synthase 2 (Homo sapiens, UniProt P35354); assay: Inhibition of COX2; conditions: not given
T2 sequence (P35354 whole entry): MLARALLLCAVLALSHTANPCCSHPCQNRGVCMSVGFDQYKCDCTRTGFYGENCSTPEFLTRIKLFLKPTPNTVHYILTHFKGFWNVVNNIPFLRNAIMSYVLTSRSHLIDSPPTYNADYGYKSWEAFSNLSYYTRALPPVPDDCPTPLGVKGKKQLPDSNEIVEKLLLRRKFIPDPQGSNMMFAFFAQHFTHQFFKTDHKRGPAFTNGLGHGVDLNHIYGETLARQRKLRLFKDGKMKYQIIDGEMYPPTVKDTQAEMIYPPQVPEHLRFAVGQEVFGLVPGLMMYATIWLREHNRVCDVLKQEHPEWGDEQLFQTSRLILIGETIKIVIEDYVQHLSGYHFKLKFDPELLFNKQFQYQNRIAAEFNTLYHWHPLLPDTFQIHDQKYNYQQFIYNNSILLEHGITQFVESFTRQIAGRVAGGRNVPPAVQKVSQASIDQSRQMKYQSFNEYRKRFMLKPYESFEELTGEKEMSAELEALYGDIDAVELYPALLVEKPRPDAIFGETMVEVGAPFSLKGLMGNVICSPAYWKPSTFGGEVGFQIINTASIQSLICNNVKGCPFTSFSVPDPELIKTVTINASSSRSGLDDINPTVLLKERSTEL

Q: Which IC50 does the source give for `O=c1cc(-c2ccc(O)c(O)c2)oc2cc(O)cc(O)c12` [LUTEOLIN] here?
A: < 349 µM

molecular target: T2, Prostaglandin G/H synthase 2; assay: Inhibition of COX2 in LPS-stimulated bone marrow derived mast cells; conditions: not given

Q: Which IC50 does the source give for `O=c1cc(-c2ccc(O)c(O)c2)oc2cc(O)cc(O)c12` [LUTEOLIN] here?
A: 8.73 µM

molecular target: T2, Prostaglandin G/H synthase 2; conditions: not given

Q: How did the IC50 turn out when `c1ccc(-c2ccc(-c3ccccc3)cc2)cc1` [TANNIN PYROGALLOL] was run?
A: 144 µM

Q: For `C[C@H]1[C@H](C)CC[C@]2(C(=O)O)CC[C@]3(C)C(=CC[C@@H]4[C@@]5(C)CC[C@H](O)C(C)(C)[C@@H]5CC[C@]43C)[C@H]12` [URSOLIC ACID], which IC50 is on record?
A: 86 µM

molecular target: T1, Prostaglandin G/H synthase 2 (Homo sapiens); conditions: at 100 µM
Description: Inhibition of COX2 at 100 uM by scintillation proximity assay

Q: With `O=c1ccc2ccccc2o1` as the molecule, how does the inhibition read?
A: < 30%

Q: How did the inhibition turn out when `C[C@@H]1O[C@@H](OC[C@H]2O[C@@H](Oc3c(-c4ccc(O)c(O)c4)oc4cc(O)cc(O)c4c3=O)[C@H](O)[C@@H](O)[C@@H]2O)[C@H](O)[C@H](O)[C@H]1O` was run?
A: < 30%

Q: `OC[C@H]1O[C@@H](Oc2ccc(O)cc2)[C@H](O)[C@@H](O)[C@@H]1O` was tested. Which inhibition did it give?
A: < 30%

Q: `CC[C@H]1CN2CCc3cc(OC)c(OC)cc3[C@@H]2C[C@@H]1C[C@H]1NCCc2cc(OC)c(OC)cc21` was tested. Which inhibition did it give?
A: < 30%

Q: With `O=C(O)C1CCCCN1` (stereo not drawn) as the molecule, how does the inhibition read?
A: < 30%

Q: With `O=c1cc(-c2ccccc2)oc2cc(O)cc(O)c12` as the molecule, how does the inhibition read?
A: < 30%

Q: Which inhibition does the source give for `O=C(/C=C/c1ccc(O)c(O)c1)O[C@@H]1C[C@](O)(C(=O)O)C[C@@H](O)[C@H]1O` here?
A: < 30%

Q: `CC12CCC(CC1=O)C2(C)C` (stereo not drawn) was tested. Which inhibition did it give?
A: < 30%

Q: For `O=C(O)c1cc(O)c2c(c1)[C@@H]([C@H]1c3cc(C(=O)O)cc(O)c3C(=O)c3c(O[C@@H]4O[C@H](CO)[C@@H](O)[C@H](O)[C@H]4O)cccc31)c1cccc(O[C@@H]3O[C@H](CO)[C@@H](O)[C@H](O)[C@H]3O)c1C2=O`, which inhibition is on record?
A: < 30%

Q: Which inhibition does the source give for `O=C(O)CCCCC1CCSS1` (stereo not drawn) here?
A: < 30%

Q: Which inhibition does the source give for `CC(C)=CCCC(C)CCO` (racemic) here?
A: < 30%

Q: For `Oc1ccc(O)cc1`, which inhibition is on record?
A: < 30%

Q: Which inhibition does the source give for `COc1cc2ccc(=O)oc2cc1O` here?
A: < 30%

Q: How did the inhibition turn out when `O=C(O)c1cccnc1` was run?
A: < 30%

Q: Which inhibition does the source give for `O=C1C[C@@H](c2ccc(O)cc2)Oc2cc(O)cc(O)c21` here?
A: < 30%

Q: For `Cc1ccc(C(C)C)c(O)c1`, which inhibition is on record?
A: < 30%

Q: For `CC(C)[C@@H]1CC[C@@H](C)C[C@H]1O`, which inhibition is on record?
A: < 30%

Q: Which inhibition does the source give for `C=C(C)[C@@H]1CC[C@]2(CO)CC[C@]3(C)[C@H](CC[C@@H]4[C@@]5(C)CC[C@H](O)C(C)(C)[C@@H]5CC[C@]43C)[C@@H]12` here?
A: < 30%

Q: `O=C(O)C1=C[C@@H](O)[C@@H](O)[C@H](O)C1` was tested. Which inhibition did it give?
A: < 30%

Q: How did the inhibition turn out when `C[N+]1(C)CCC[C@H]1C(=O)[O-]` was run?
A: < 30%

Q: For `O=C(O)c1cc(O)c(O)c(O)c1`, which inhibition is on record?
A: < 30%

Q: With `C=C(C)[C@H]1CC=C(C)CC1` as the molecule, how does the inhibition read?
A: < 30%

Q: For `CN1[C@@H]2C[C@@H](OC(=O)[C@H](CO)c3ccccc3)C[C@H]1[C@@H]1O[C@H]12`, which inhibition is on record?
A: < 30%

Q: How did the inhibition turn out when `CC(C)=CCC[C@](C)(O)[C@H]1CC=C(C)CC1` was run?
A: < 30%

Q: For `O=c1c(O)c(-c2cc(O)c(O)c(O)c2)oc2cc(O)cc(O)c12`, which inhibition is on record?
A: 62%

Q: With `CC(C)=CCC[C@@H](C)CC=O` as the molecule, how does the inhibition read?
A: < 30%

Q: Which inhibition does the source give for `Cn1c(=O)c2c(ncn2C)n(C)c1=O` here?
A: < 30%

Q: How did the inhibition turn out when `O=C(O)[C@]1(O)C[C@H](O)[C@@H](O)[C@@H](O)C1` was run?
A: < 30%

Q: For `COc1ccc(C(=O)O)cc1O`, which inhibition is on record?
A: < 30%

Q: Which inhibition does the source give for `C[C@@H]1O[C@@H](O[C@H]2C[C@@H](O)[C@]3(CO)[C@H]4[C@H](O)C[C@]5(C)[C@@H](C6=CC(=O)OC6)CC[C@]5(O)[C@@H]4CC[C@]3(O)C2)[C@H](O)[C@H](O)[C@H]1O` here?
A: < 30%

Q: For `COc1cc([C@@H]2c3cc4c(cc3[C@H](O)[C@H]3COC(=O)[C@H]23)OCO4)cc(OC)c1OC`, which inhibition is on record?
A: < 30%

Q: How did the inhibition turn out when `O=C(O)/C=C/c1ccc(O)cc1` was run?
A: < 30%

Q: With `CC12CCC(CC1)C(C)(C)O2` as the molecule, how does the inhibition read?
A: < 30%

Q: For `C[n+]1cccc(C(=O)[O-])c1`, which inhibition is on record?
A: < 30%

Q: Which inhibition does the source give for `O=c1cc(-c2ccc(O)c(O)c2)oc2cc(O)cc(O)c12` [LUTEOLIN] here?
A: < 30%

Q: With `Oc1cccc(O)c1O` as the molecule, how does the inhibition read?
A: 57%

Q: With `O=c1ccc2cc(O[C@@H]3O[C@H](CO)[C@@H](O)[C@H](O)[C@H]3O)c(O)cc2o1` as the molecule, how does the inhibition read?
A: < 30%

Q: For `CC(C)C1=CC2=CC[C@@H]3[C@](C)(CCC[C@@]3(C)C(=O)O)[C@H]2CC1`, which inhibition is on record?
A: < 30%

Q: Which inhibition does the source give for `CN1[C@@H]2CC[C@H]1C[C@@H](OC(=O)C(CO)c1ccccc1)C2` (mixture of isomers) here?
A: < 30%

Q: `O=C(O)/C=C/c1ccc(O)c(O)c1` was tested. Which inhibition did it give?
A: 32%

Q: How did the inhibition turn out when `O=c1ccc2ccc(O)cc2o1` was run?
A: < 30%

Q: How did the inhibition turn out when `O=C/C=C/c1ccccc1` was run?
A: 45%

Q: With `Cn1c(=O)c2[nH]cnc2n(C)c1=O` as the molecule, how does the inhibition read?
A: < 30%

substrate: CCCCC/C=C\C/C=C\C/C=C\C/C=C\CCCC(=O)O; assay: Activity of COX2; conditions: not given

Q: For B1, which Km is on record?
A: 1 µM
